We go through two molecules from patent US20260256923A1, “NEW RECRUITMENT ELEMENT OF UBIQUITIN LIGASE AND USE THEREOF” (SHENZHEN LINGGENE BIOTECH CO., LTD., priority 2023, published 2026).

Series [1] concerns metastatic castration-resistant prostate cancer. Particulars: patients carrying AR T878X and/or H875Y mutations; cited from earlier work.
The target in series [2] is T1, STAT3 (Homo sapiens, UniProt P40763). The experiment in a line: STAT3 protein degradation in HOS osteosarcoma cells, western blot. It is filed as cell-based. The conditions noted are these: 500 nM, 6 h. More on the design: endogenous in cells. How it is done:
HOS osteosarcoma cells were incubated with 500 nM double-stranded transcription factor decoy oligonucleotide S3, AS1411, the first PROTAC product 1411-S3-1, the second PROTAC product 1411-S3-2, or AS1411+double-stranded transcription factor decoy oligonucleotide S3. After 6 h, cell samples were collected for protein extraction and subsequent western blot assay.
A general note: In western blotting, separated proteins are transferred to a membrane and probed.

Series [3] has as its target T1, STAT3. The experiment in a line: STAT3 protein degradation in HeLa cells, western blot. Particulars: 500 nM, 6 h. Further details: endogenous in cells; host or cells: HeLa. It is filed as cell-based. How it is done:
HeLa cells were incubated with 500 nM said first PROTAC product 1411-S3-1 or second PROTAC product 1411-S3-2, and corresponding cell samples were collected at time gradients of 0 h, 2 h, 6 h, 12 h, 18 h, and 24 h for protein extraction and subsequent western blot assay.
HeLa cells were incubated with the first PROTAC product 1411-S3-1 or the second PROTAC product 1411-S3-2 at concentrations of 0 nM, 100 nM, 200 nM, 500 nM, and 1000 nM. After 6 h, cell samples were collected for protein extraction and subsequent western blot assay. […] The half-maximal degradation concentrations (DC50) of the first PROTAC product 1411-S3-1 and the second PROTAC product 1411-S3-2 against STAT3 at the protein level were 262.5 nM and 136.3 nM, respectively, as shown in FIG. 19.
HeLa cells were incubated with 500 nM double-stranded transcription factor decoy oligonucleotide S3, AS1411, the first PROTAC product 1411-S3-1, the second PROTAC product 1411-S3-2, or AS1411+double-stranded transcription factor decoy oligonucleotide S3. After 6 h, cell samples were collected for protein extraction and subsequent western blot assay.
HeLa cells were incubated with 500 nM said first PROTAC product 1411-S3-1 or second PROTAC product 1411-S3-2, and proteasome inhibitor MG132 was added. After 6 h, cell samples were collected for protein extraction and subsequent western blot assay. […]

T1 sequence (P40763 whole entry): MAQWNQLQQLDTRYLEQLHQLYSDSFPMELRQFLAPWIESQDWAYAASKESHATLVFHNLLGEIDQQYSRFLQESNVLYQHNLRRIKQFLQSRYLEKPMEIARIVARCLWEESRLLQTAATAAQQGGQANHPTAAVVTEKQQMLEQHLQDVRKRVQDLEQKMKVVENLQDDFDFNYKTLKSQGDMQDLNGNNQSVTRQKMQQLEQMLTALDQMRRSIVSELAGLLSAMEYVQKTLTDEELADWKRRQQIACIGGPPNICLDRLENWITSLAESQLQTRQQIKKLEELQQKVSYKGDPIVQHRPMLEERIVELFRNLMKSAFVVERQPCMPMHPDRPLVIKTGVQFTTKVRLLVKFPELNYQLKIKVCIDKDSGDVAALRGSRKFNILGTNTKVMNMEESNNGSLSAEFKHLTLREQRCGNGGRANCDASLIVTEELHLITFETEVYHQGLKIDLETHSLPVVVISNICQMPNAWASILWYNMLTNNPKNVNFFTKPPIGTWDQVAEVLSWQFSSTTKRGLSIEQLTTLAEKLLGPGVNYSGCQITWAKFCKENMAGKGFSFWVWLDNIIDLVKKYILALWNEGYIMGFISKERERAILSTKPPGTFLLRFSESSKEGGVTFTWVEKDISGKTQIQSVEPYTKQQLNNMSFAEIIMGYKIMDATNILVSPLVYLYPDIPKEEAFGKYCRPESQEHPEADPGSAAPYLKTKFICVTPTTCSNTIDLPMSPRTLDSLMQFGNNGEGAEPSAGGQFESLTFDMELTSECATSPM

For the molecule `N#Cc1ccc(O[C@H]2CC[C@H](NC(=O)c3ccc(N4CCC(CN5CCN(c6cc7c(cc6F)C(=O)N(C6CCC(=O)NC6=O)C7=O)CC5)CC4)nn3)CC2)cc1Cl` (stereo partly drawn) [ARV-110, Bavdegalutamide], the “antitumor activity and clinical benefit” value in series [1] was “exhibits potent antitumor activity and clinical benefit”.
In the case of “S3: double-stranded transcription factor decoy oligonucleotide that specifically recognizes STAT3; strands SEQ ID NO: 5 and 6 (chain 1 CTTCTGGGAAA; chain 2 TTTCCCAGAAG; DNA, backbone and methylation of C not given here; double-stranded decoy)”, the “protein level of STAT3” value in series [2] was “only the first PROTAC product 1411-S3-1 and the second PROTAC product 1411-S3-2 can reduce the protein level of transcription factor STAT3”; in series [3], “only the first PROTAC product 1411-S3-1 and the second PROTAC product 1411-S3-2 can reduce the protein level of transcription factor STAT3”.
